Patent publication US6459017B1, “Iris transformation method” (The State of Oregon Acting By and Through the State Board …, priority 2000, dated 2002)

What was measured:
[1] = test system: non-transformed iris cells; assay: Evaluation of selection agents: growth suppression of non-transformed iris suspension-cultured cells on MS-C medium; assay type: cell-based, Iris germanica; conditions: for inhibition of cell growth scored visually: preliminary experiments, five concentrations
Protocol: Evaluation of selection agents. […] To determine the efficacy of several commonly used agents for selecting transformed iris cells, the following substances were tested: five antibiotics (methotrexate, hygromycin, geneticin (G418), gentamycin, and phleomycin); three herbicides (glyphosate [N-(Phosphonomethyl)glycine] (Monsanto, St. Louis, Mo.), chlorsulfuron [2-Chloro-N-[[(methoxy-6-methyl-1,3,5-triazin-2-yl)amino]carbonyl]benzenesulfonamide] (E.I. Du Pont de Nemours & Co., Inc., Agricultural Products Dept., Wilmington, Del.) and glufosinate-ammonium (Basta; Hoechst Canada, Inc., Regina, Saskatchewan, Canada)); and one amino acid analog (4-methyl-tryptophan) (Sigma).
The liquid MS-L medium was removed from a three-week-old iris suspension culture and the cells spread on Whatman No. 1 filter papers (42.5 mm diameter) in small culture plates (60 mm×15 mm), over MS-C medium [MS-L medium with 3 g·L^−1 Phytagel (Sigma Chem. Co., St. Louis, Mo.), as described in Examples 1 and 2] containing increasing amounts of the selection agent. Plates were incubated for three weeks in the dark at 25° C. In preliminary experiments, five concentrations of each selection agent were tested and inhibition of cell growth was scored visually.
Fresh weights of resultant tissue were measured and mean values, expressed as a percentage of growth by controls (no selection agent). At least five plates were used for each concentration of selection agent.

[2] = test system: suspension-cultured cells of Iris germanica; assay: Effect of Kin and NAA in MS-I medium on regeneration potential of differentiated clumps; assay type: cell-based; conditions: 6 weeks on MS-D with 1.25 μM BA
Protocol: Effect of Kin and NAA, a/one and in combination, in MS-I medium. To induce plant morphogenesis from suspension-cultured cells, 16 different combinations of NAA (0.0, 0.5, 2.5, and 12.5 μM) and Kin (0.0, 2.5, 12.5, and 62.5 μM) were evaluated. A 0.5-mL aliquot of the resuspended cells was inoculated on each 15×60 mm plastic plate containing 20 mL MS-I medium with different combinations of Kin and NAA. The cells were spread with a spoon-like spatula to form a uniform layer on the surface of MS-I medium. The plates were sealed with Parafilm® and incubated in the dark at 25° C. The number of differentiated clumps was recorded after five weeks. The clumps were collected and grouped into four size classes: large (>10 mm), medium (5 to 10 mm), small (2 to 5 mm) and very small (<2 mm). The regeneration potential of differentiated clumps was assessed by randomly sampling 30 to 60 clumps from each size class and transferring them to three to six Magenta GA-7 vessels (Sigma Chem. Co., St. Louis, Mo.) containing 50 mL of MS-D medium (Table 1) supplemented with 1.25 μM BA. They were then incubated under light (50 μmol m^−2 s^−1) at 23° C. for six weeks. The total number of regenerating clumps (i.e., differentiated clumps that continued to grow and develop on MS-D medium) was counted, and percentages of regenerating clumps that developed shoots only or plantlets (rooted shoots derived from somatic embryos) were recorded. The regenerated shoots and plantlets were transferred to MS-R medium (Table 1) to promote root development. Each Kin/NAA combination was evaluated in five plates per experiment; the entire experiment was repeated three times.

[3] = test system: leaf samples from non-transformed iris plants; assay: Leaf-bleach assay with paromomycin; design: species or system Iris germanica; conditions: 200 mg·L^−1 paromomycin; leaf samples from control (non-transgenic) plants; five days
Protocol: Functional assay of NPTII genes. To test the NPTII expression in transformed iris plants, the leaf-bleach assay was carried out according to Cheng et al. (Plant Physiol., 115:971-980, 1997), with minor modifications described below. Four pieces (≈7-mm) were cut from the second youngest leaf of each plant approximately one month after establishment in growing medium in the greenhouse. One leaf piece was placed in 1 mL of solution containing 25 mg·L^−1 benomyl fungicide [methyl 1-(butylcarbamoyl)-2 benzimidazolecarbamate] (Hi-Yield Chem. Co., Bonham, Tex.) and 0.01% Triton X-100 (Sigma), in a well of 24-well culture plate, as a control. Each of the remaining three pieces were placed in 1 mL of the same solution with either 50, 100, or 200 mg·L^−1 paromomycin (Sigma). Leaf samples from the non-transformed iris plants at a similar developmental stage were used as a negative control. The samples were vacuum-infiltrated for 10 minutes. The plates were then sealed with Parafilm and incubated for five days at 23° C. with a 16 hours photoperiod of 50 μmol·m^−2·s^−1 provided by cool-white fluorescent lamps. In preliminary assays, G418 and hygromycin were also tested, the latter for the functional expression of the hpt gene. The response to all three antibiotics was very similar, so paromomycin was selected to assay the rest of the putative transgenic iris plants because it was least expensive.

[4] = 2.5 μM in MS-I medium (main effect)
[5] = 12.5 μM in MS-I medium (main effect)
[6] = 62.5 μM in MS-I medium (main effect)
[7] = 0.5 μM in MS-I medium (main effect)

Cc1cccc2[nH]cc(C[C@H](N)C(=O)O)c12 [4-methyl-tryptophane, 4-methyl-tryptophan]
inhibition of cell growth scored visually [1]: did not clearly inhibit growth

CP(=O)(O)CCC(N)C(=O)O (centres unmarked) [Basta, glufosinate-ammonium]
inhibition at 10 µg/mL ([1]; Iris germanica, 504 h, read-out: cell growth inhibited): ~70%

c1coc(CNc2ncnc3[nH]cnc23)c1 [KIN, kinetin]
Regenerating clumps (%) [2, 4]: 41%
Regenerating clumps developing PLANTLETS (%) [2, 4]: 96%
Regenerating clumps developing SHOOTS ONLY (%) [2, 4]: 5%
Regenerating clumps (%) [2, 5]: 44%
Regenerating clumps developing PLANTLETS (%) [2, 5]: 89%
Regenerating clumps developing SHOOTS ONLY (%) [2, 5]: 12%
Regenerating clumps (%) [2, 6]: 45%
Regenerating clumps developing PLANTLETS (%) [2, 6]: 88%
Regenerating clumps developing SHOOTS ONLY (%) [2, 6]: 12%

O=C(O)Cc1cccc2ccccc12 [NAA, 1-naphthaleneacetic acid]
Regenerating clumps (%) [2, 7]: 56%
Regenerating clumps developing PLANTLETS (%) [2, 7]: 94%
Regenerating clumps developing SHOOTS ONLY (%) [2, 7]: 6%
Regenerating clumps (%) [2, 4]: 55%
Regenerating clumps developing PLANTLETS (%) [2, 4]: 89%
Regenerating clumps developing SHOOTS ONLY (%) [2, 4]: 11%
Regenerating clumps (%) [2, 5]: 33%
Regenerating clumps developing PLANTLETS (%) [2, 5]: 94%
Regenerating clumps developing SHOOTS ONLY (%) [2, 5]: 7%

COc1nc(C)nc(NC(=O)NS(=O)(=O)c2ccccc2Cl)n1 [chlorsulfuron, 2-Chloro-N-[[(methoxy-6-methyl-1,3,5-triazin-2-yl)amino]carbonyl]benzenesulfonamide]
inhibition at 0.5 µg/mL ([1]; Iris germanica, 504 h, 0.5 mg·L^−1, three weeks on MS-C medium, read-out: cell growth inhibited): ~90%

O=C(O)CNCP(=O)(O)O [glyphosate, N-(Phosphonomethyl)glycine]
inhibition of cell growth scored visually [1]: did not clearly inhibit growth

CN(Cc1cnc2nc(N)nc(N)c2n1)c1ccc(C(=O)N[C@@H](CCC(=O)O)C(=O)O)cc1 [methotrexate]
inhibition at 0.05 µg/mL ([1]; Iris germanica, 504 h, 0.05 mg·L^−1, three weeks on MS-C medium, read-out: cell growth inhibited): ~80%

NC[C@@H]1O[C@H](O[C@H]2[C@@H](O)[C@H](O[C@@H]3[C@@H](O)[C@H](N)C[C@H](N)[C@H]3O[C@H]3O[C@H](CO)[C@@H](O)[C@H](O)[C@H]3N)O[C@@H]2CO)[C@H](N)[C@@H](O)[C@@H]1O [paromomycin]
leaf bleaching [3]: almost completely bleached

gentamycin
inhibition of cell growth scored visually [1]: did not clearly inhibit growth

phleomycin
inhibition of cell growth scored visually [1]: did not clearly inhibit growth
